# Measurements reported in patent US20250051277A1, “DELIVERY OF THERAPEUTIC ALKALOID COMPOUNDS” (Sensorium Therapeutics, Inc., priority 2021, published 2025).
# Like-named read-outs stand apart in the source and are kept apart here.
# What was measured:
# [1] = type: physicochemical; settings: SGF with pepsin, pH 1.5, 37° C., 0.5 mM
# SERT = SERT (Homo sapiens (Human), UniProt P31645); type: cell-based; settings: stable 5HTT cells, 30 minutes at 37° C.
# [2] = Pharmacokinetics of 043 and 001 in mice after oral 043 (75 mg/kg); type: in vivo, male C57BL/6 mice
# Method: Total twelve male mice were used in this study. […] The formulation vehicle used was normal saline.
# The plasma and brain concentration-time data of 043 and 001 was used for the pharmacokinetic analysis.
# The extraction procedure for plasma/brain samples and the spiked plasma/brain calibration standards were identical:
# A 25 μL of study sample plasma/brain (dilution applied to some samples) or spiked plasma calibration standard was added to individual pre-labeled micro-centrifuge tubes followed by 100 μL of internal standard prepared in acetonitrile (Glipizide-500 ng/mL) was added except for blank, where 100 μL of acetonitrile was added. Samples were vortexed for 5 minutes. Samples were centrifuged for 10 minutes at a speed of 4000 rpm at 4° C. Following centrifugation, 100 μL of clear supernatant was transferred in 96 well plates and analyzed using LC-MS/MS.
# [3] = Method: Brain samples were homogenized with PBS (W/V, 1:3). Plasma/brain samples were mixed with acetonitrile containing internal standard. The samples were vortexed then centrifuged at 4 degrees Celsius for 15 minutes. The supernatant was diluted with water (1:2 V/V) and analyzed by LC/MS/MS for quantitative analysis. […] Area under the curve (AUC) was calculated and divided by dose to account for molecular weight difference of prodrug and metabolite (AUC/D).
# [4] = type: physicochemical; settings: DI water, 25° C., 0.5 mM
# [5] = in vivo; for Plasma levels of 001: mouse, iv, 2 mg/kg
# Method: Male C57/BL6 mice were used to evaluate each compound, with n=3 mice/time point.
# Animals were administered through intravenous route with solution formulation at 2 mg/kg dose. […] Following blood collection, immediately, animals were sacrificed, and vena-cava was cut open and blood was drained. […] Brain samples were collected from set of three mice at each time point. […] Brain samples were homogenized using 2 volumes of ice-cold PBS (pH-7.4) of brain weight. […] Concentrations of compound (or compound and metabolite) in mouse plasma and brain samples were determined by fit for purpose LC-MS/MS method.
# [6] = 5 μM
# [7] = 5 μM; remark: listed apart in the source
# [8] = analyte = label, single oral administration of 043, 75 mg/kg, male C57BL/6 mice
# [9] = brain, analyte = label, single oral administration of 043, 75 mg/kg, male C57BL/6 mice
# [10] = plasma, analyte = label, single oral administration of 043, 75 mg/kg, male C57BL/6 mice
SMILES,Condition 1 Conversion (%) ([1]; time 1 min),Condition 1 Conversion (%) ([1]; time 5 min),Condition 1 Conversion (%) ([1]; time 30 min),Condition 1 Conversion (%) ([1]; time 1 h),Condition 1 Conversion (%) ([1]; time 4 h),Condition 1 Conversion (%) ([1]; time 24 h),IC50 (SERT) [nM],also measured
"CO/N=C1/CC[C@@]2(c3ccc(OC)c(OC)c3)CCN(C)[C@H]2C1 [Compound 035, (Z, 3aS,7aS)-3a-(3,4-dimethoxyphenyl)-N-methoxy-1-methyl-2,3,4,5,7,7a-hexahydroindol-6-imine]",0,0,5.4,13.1,35.2,38.9,< 50,
"CO/N=C1\CC[C@@]2(c3ccc(OC)c(OC)c3)CCN(C)[C@H]2C1 [Compound 038, (E,3aS,7aS)-3a-(3,4-dimethoxyphenyl)-N-methoxy-1-methyl-2,3,4,5,7,7a-hexahydroindol-6-imine]",0,0,1.3,11.9,31.3,49.9,< 50,
COc1ccc([C@]23CCN(C)[C@H]2CC2(CC3)OCCO2)cc1OC [Compound 043],0,0,0,0,0,0,< 50,"conversion of prodrug to 001 in vivo ([2]; 75 mg/kg po in mice): efficiently converts to 001 in vivo; Brain concentrations quantifiable up to [2, 8]: 4 h; brain exposure-Kp [2, 8]: < 1; AUClast [2, 9]: 1787.23 ng·h/mL; Cmax [2, 9]: 2684.81 ng/mL; Tmax [2, 9]: 30 min; AUClast [2, 10]: 2555.07 ng·h/mL; Cmax [2, 10]: 3392.53 ng/mL; Tmax [2, 10]: 30 min"
COc1ccc(C23CCN(C)C2CC2(CC3)OCCO2)cc1OC (centres unmarked) [Compound 044],0,0,0,0,0,0,> 1000,
"COc1ccc([C@]23CCN(C)[C@H]2CC2(CC3)SCCS2)cc1OC [Compound 045, (3′aS,7′aS)-3′a-(3,4-dimethoxyphenyl)-1′-methyl-spiro[1,3-dithiolane-2,6′-2,3,4,5,7,7a-hexahydroindole]]",0,0,0,0,0,0,> 1000,
"COc1ccc([C@@]23CCN(C)[C@@H]2CC2(CC3)SCCS2)cc1OC [Compound 046, (3′aR,7′aR)-3′a-(3,4-dimethoxyphenyl)-1′-methyl-spiro[1,3-dithiolane-2,6′-2,3,4,5,7,7a-hexahydroindole]]",0,0,0,0,0,0,100 to 500,
"CCC(C)CC(=O)OC1=C[C@@H]2N(C)CC[C@]2(c2ccc(OC)c(OC)c2)CC1 (stereo partly drawn) [Compound 316, [(3aS,7aS)-3a-(3,4-dimethoxyphenyl)-1-methyl-3,4,5,7a-tetrahydro-2H-indol-6-yl]3-methyl pentanoate]",,,,,,,,"conversion of prodrug to 001 in vivo ([3]; 2 mg/kg iv in rat): converts to 001 in vivo in rat; 001 brain levels quantifiable up to ([3]; rat, in vivo): 3 h"
"CCC(=O)OC1=C[C@@H]2N(C)CC[C@]2(c2ccc(OC)c(OC)c2)CC1 [Compound 317, [(3aS,7aS)-3a-(3,4-dimethoxyphenyl)-1-methyl-3,4,5,7a-tetrahydro-2H-indol-6-yl]propanoate]",0,0,0,0,0,0,,"Condition 2 Conversion (%) ([4]; time 1 min): 0%; Condition 2 Conversion (%) ([4]; time 5 min): 0%; Condition 2 Conversion (%) ([4]; time 30 min): 0%; Condition 2 Conversion (%) ([4]; time 1 h): 0%; Condition 2 Conversion (%) ([4]; time 4 h): 0%; Condition 2 Conversion (%) ([4]; time 24 h): 0%; quantifiable levels of 001 in plasma up to ([5]; male, C57BL/6, mouse): 60 min; Plasma levels of 001 [5]: not detectable"
"COc1ccc([C@@]23CCC(OC(=O)CC(C)C)=C[C@@H]2N(C)CC3)cc1OC [Compound 334, [(3aS,7aS)-3a-(3,4-dimethoxyphenyl)-1-methyl-3,4,5,7a-tetrahydro-2H-indol-6-yl]3-methylbutanoate]",0,0,0,0,0,0,,"Condition 2 Conversion (%) ([4]; time 1 min): 0%; Condition 2 Conversion (%) ([4]; time 5 min): 0%; Condition 2 Conversion (%) ([4]; time 30 min): 0%; Condition 2 Conversion (%) ([4]; time 1 h): 0%; Condition 2 Conversion (%) ([4]; time 4 h): 0%; Condition 2 Conversion (%) ([4]; time 24 h): 0%; quantifiable levels of 001 in brain up to ([5]; male, C57BL/6, mouse): 2 h; quantifiable levels of 001 in plasma up to ([5]; male, C57BL/6, mouse): 60 min; Plasma levels of 001 [5]: not detectable; Human Plasma Compound 001 (%) ([6]; 15 min): 63.6%; Human Plasma Compound 001 (%) ([6]; 30 min): 63.7%; Human Plasma Compound 001 (%) ([6]; 60 min): 65.4%; Human Plasma Compound 001 (%) ([6]; 120 min): 65.1%; Human Plasma Compound 001 (%) ([6]; 240 min): 63.8%; Mouse Plasma Compound 001 (%) ([7]; 15 min): 73.1%; Mouse Plasma Compound 001 (%) ([7]; 30 min): 70.9%; Mouse Plasma Compound 001 (%) ([7]; 60 min): 68.8%; Mouse Plasma Compound 001 (%) ([7]; 120 min): 70.0%; Mouse Plasma Compound 001 (%) ([7]; 240 min): 68.5%"
